ChEMBL document CHEMBL1201861, “Genomics of Drug Sensitity in Cancer screening data, Wellcome Trust Sanger Institute”

Columns and labels:
Assay in all cases: cells
Details in all cases: Homo sapiens
COLO-800 = assay type: functional, cell-based;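 further: growth inhibition of COLO-800 cells, read out with a cell viability assay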
Description: SANGER: Inhibition of human COLO-800 cell growth in a cell viability assay.

COR-L88 = assay type: functional, cell-based;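 further: growth inhibition of COR-L88 cells, read out with a cell viability assay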
Description: SANGER: Inhibition of human COR-L88 cell growth in a cell viability assay.

CW-2 = assay type: functional, cell-based;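 further: growth inhibition of CW-2 cells, read out by a cell viability assay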
Description: SANGER: Inhibition of human CW-2 cell growth in a cell viability assay.

D-263MG = assay type: functional, cell-based
Description: SANGER: Inhibition of human D-263MG cell growth in a cell viability assay.

D283 Med = assay type: functional, cell-based
Description: SANGER: Inhibition of human D-283MED cell growth in a cell viability assay.

DSH1 = assay type: functional, cell-based;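 further: growth inhibition of human DSH1 cells, measured with a cell viability readout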
Description: SANGER: Inhibition of human DSH1 cell growth in a cell viability assay.

EKVX = assay type: functional, cell-based;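 further: growth inhibition of human EKVX cells, read out with a cell viability assay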
Description: SANGER: Inhibition of human EKVX cell growth in a cell viability assay.

EW-11 = assay type: functional, cell-based;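 further: growth inhibition of human EW-11 cells, measured with a cell viability assay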
Description: SANGER: Inhibition of human EW-11 cell growth in a cell viability assay.

EW-18 = assay type: functional, cell-based;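 further: growth inhibition of EW-18 cells, read out by a cell viability assay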
Description: SANGER: Inhibition of human EW-18 cell growth in a cell viability assay.

EW-3 = assay type: functional, cell-based;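 further: cell viability assay read-out, IC50 reflects inhibition of growth of the EW-3 cells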
Description: SANGER: Inhibition of human EW-3 cell growth in a cell viability assay.

GI-ME-N = assay type: functional, cell-based;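 further: growth inhibition of human GI-ME-N cells, read out with a cell viability assay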
Description: SANGER: Inhibition of human GI-ME-N cell growth in a cell viability assay.

HAL-01 = assay type: functional, cell-based;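 further: growth inhibition of human HAL-01 cells, read out with a cell viability assay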
Description: SANGER: Inhibition of human HAL-01 cell growth in a cell viability assay.

HL-60 = assay type: functional, cell-based;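 further: growth inhibition of human HL-60 cells, read out with a cell viability assay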
Description: SANGER: Inhibition of human HL-60 cell growth in a cell viability assay.

IST-MES1 = assay type: functional, cell-based;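 further: growth inhibition of IST-MES1 cells, measured with a cell viability assay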
Description: SANGER: Inhibition of human IST-MES1 cell growth in a cell viability assay.

JAR = assay type: functional, cell-based;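 further: growth inhibition of human JAR cells determined with a cell viability assay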
Description: SANGER: Inhibition of human JAR cell growth in a cell viability assay.

KARPAS-299 = assay type: functional, cell-based
Description: SANGER: Inhibition of human KARPAS-299 cell growth in a cell viability assay.

KE-37 = assay type: functional, cell-based;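 further: growth inhibition of KE-37 cells, read out with a cell viability assay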
Description: SANGER: Inhibition of human KE-37 cell growth in a cell viability assay.

KY821 = assay type: functional, cell-based;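 further: growth inhibition of human KY821 cells, read out by a cell viability assay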
Description: SANGER: Inhibition of human KY821 cell growth in a cell viability assay.

L-428 = assay type: functional, cell-based
Description: SANGER: Inhibition of human L-428 cell growth in a cell viability assay.

LB1047-RCC = assay type: functional, cell-based;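 further: inhibition of cell growth, determined with a cell viability assay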
Description: SANGER: Inhibition of human LB1047-RCC cell growth in a cell viability assay.

LB771-HNC = assay type: functional, cell-based;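 further: growth inhibition of LB771-HNC human cells, read out with a cell viability assay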
Description: SANGER: Inhibition of human LB771-HNC cell growth in a cell viability assay.

LB831-BLC = assay type: functional, cell-based;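 further: growth inhibition of LB831-BLC cells, read out with a cell viability assay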
Description: SANGER: Inhibition of human LB831-BLC cell growth in a cell viability assay.

LNCaP-Clone-FGC = assay type: functional, cell-based
Description: SANGER: Inhibition of human LNCaP-Clone-FGC cell growth in a cell viability assay.

LS-411N = assay type: functional, cell-based
LS-513 = assay type: functional, cell-based
Description: SANGER: Inhibition of human LS-513 cell growth in a cell viability assay.

LU-134-A = assay type: functional, cell-based
Description: SANGER: Inhibition of human LU-134-A cell growth in a cell viability assay.

Lu-65 = assay type: functional, cell-based;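 further: growth inhibition of Lu-65 cancer cells, read out by a cell viability assay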
Description: SANGER: Inhibition of human LU-65 cell growth in a cell viability assay.

LXF-289 cell line = assay type: functional, cell-based
Description: SANGER: Inhibition of human LXF-289 cell growth in a cell viability assay.

MHH-NB-11 = assay type: functional, cell-based;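 further: growth inhibition of human MHH-NB-11 cells, read out by a cell viability assay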
Description: SANGER: Inhibition of human MHH-NB-11 cell growth in a cell viability assay.

MPP-89 = assay type: functional, cell-based;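 further: growth inhibition of human MPP-89 cells, read out with a cell viability assay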
Description: SANGER: Inhibition of human MPP-89 cell growth in a cell viability assay.

MSTO-211H = assay type: functional, cell-based
Description: SANGER: Inhibition of human MSTO-211H cell growth in a cell viability assay.

Mo = assay type: functional, cell-based
Description: SANGER: Inhibition of human Mo-T cell growth in a cell viability assay.

NB10 = assay type: functional, cell-based;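 further: growth inhibition of NB10 cells, read out by a cell viability assay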
Description: SANGER: Inhibition of human NB10 cell growth in a cell viability assay.

NB6 = assay type: functional, cell-based;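 further: growth inhibition of NB6 cells, read out by a cell viability assay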
Description: SANGER: Inhibition of human NB6 cell growth in a cell viability assay.

NCI-H1092 = assay type: functional, cell-based;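 further: cell growth inhibition measured with a cell viability assay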
Description: SANGER: Inhibition of human NCI-H1092 cell growth in a cell viability assay.

NCI-H1355 = assay type: functional, cell-based;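 further: growth inhibition of human NCI-H1355 cells, read out by a cell viability assay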
Description: SANGER: Inhibition of human NCI-H1355 cell growth in a cell viability assay.

NCI-H1650 = assay type: functional, cell-based;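 further: growth inhibition of human NCI-H1650 cells measured by a cell viability assay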
Description: SANGER: Inhibition of human NCI-H1650 cell growth in a cell viability assay.

NCI-H526 = assay type: functional, cell-based;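 further: growth inhibition of the human NCI-H526 cell line, measured by a cell viability assay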
Description: SANGER: Inhibition of human NCI-H526 cell growth in a cell viability assay.

NH-12 = assay type: functional, cell-based;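 further: growth inhibition of NH-12 cells, read out with a cell viability assay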
Description: SANGER: Inhibition of human NH-12 cell growth in a cell viability assay.

NKM-1 = assay type: functional, cell-based;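 further: growth inhibition of NKM-1 cells, read out with a cell viability assay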
Description: SANGER: Inhibition of human NKM-1 cell growth in a cell viability assay.

OCUB-M = assay type: functional, cell-based;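 further: growth inhibition of the cancer cell line, read out through a cell viability assay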
Description: SANGER: Inhibition of human OCUB-M cell growth in a cell viability assay.

OVCAR-4 = assay type: functional, cell-based;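 further: growth inhibition of human OVCAR-4 cells, measured with a cell viability assay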
Description: SANGER: Inhibition of human OVCAR-4 cell growth in a cell viability assay.

RH-1 = assay type: functional, cell-based;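 further: growth inhibition of human RH-1 cells, read out with a cell viability assay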
Description: SANGER: Inhibition of human RH-1 cell growth in a cell viability assay.

SHP77 = assay type: functional, cell-based, SHP-77;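 further: growth inhibition of human SHP-77 cells measured by a cell viability assay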
Description: SANGER: Inhibition of human SHP-77 cell growth in a cell viability assay.

SW684 = assay type: functional, cell-based;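 further: growth inhibition of human SW684 cells, measured by a cell viability assay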
Description: SANGER: Inhibition of human SW684 cell growth in a cell viability assay.

SW 962 = assay type: functional, cell-based;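 further: growth inhibition of human SW962 cells, read out by a cell viability assay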
Description: SANGER: Inhibition of human SW962 cell growth in a cell viability assay.

TE-1 = assay type: functional, cell-based;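 further: growth inhibition of the human TE-1 cell line, read out with a cell viability assay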
Description: SANGER: Inhibition of human TE-1 cell growth in a cell viability assay.

A498 = assay type: functional, cell-based;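 further: growth inhibition of human A498 cells, read out with a cell viability assay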
Description: SANGER: Inhibition of human A498 cell growth in a cell viability assay.

ALL-PO = assay type: functional, cell-based;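 further: growth inhibition of ALL-PO cells, read out by a cell viability assay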
Description: SANGER: Inhibition of human ALL-PO cell growth in a cell viability assay.

BB30-HNC = assay type: functional, cell-based;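 further: growth inhibition of the cultured cell line, read out by a cell viability assay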
Description: SANGER: Inhibition of human BB30-HNC cell growth in a cell viability assay.

BB49-HNC = assay type: functional, cell-based;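 further: cell viability assay read-out, reported as inhibition of BB49-HNC cell growth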
Description: SANGER: Inhibition of human BB49-HNC cell growth in a cell viability assay.

BT-474 = assay type: functional, cell-based
Description: SANGER: Inhibition of human BT-474 cell growth in a cell viability assay.

BV-173 = assay type: functional, cell-based
Description: SANGER: Inhibition of human BV-173 cell growth in a cell viability assay.

C2BBe1 = assay type: functional, cell-based;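 further: growth inhibition of C2BBe1 cells, read out through a viability assay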
Description: SANGER: Inhibition of human C2BBe1 cell growth in a cell viability assay.

TE-8 = assay type: functional, cell-based;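 further: growth inhibition of TE-8 cells, measured with a cell viability readout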
Description: SANGER: Inhibition of human TE-8 cell growth in a cell viability assay.

TGBC24TKB = assay type: functional, cell-based;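 further: growth inhibition of human TGBC24TKB cells, read out with a cell viability assay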
Description: SANGER: Inhibition of human TGBC24TKB cell growth in a cell viability assay.

COLO-320-HSR = assay type: functional, cell-based;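 further: growth inhibition of COLO-320-HSR cells, determined with a cell viability assay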
Description: SANGER: Inhibition of human COLO-320-HSR cell growth in a cell viability assay.

COLO-668 = assay type: functional, cell-based
Description: SANGER: Inhibition of human COLO-668 cell growth in a cell viability assay.

COLO-684 = assay type: functional, cell-based
Description: SANGER: Inhibition of human COLO-684 cell growth in a cell viability assay.

COLO-829 = assay type: functional, cell-based
Description: SANGER: Inhibition of human COLO-829 cell growth in a cell viability assay.

CP66-MEL = assay type: functional, cell-based;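 further: growth inhibition of CP66-MEL cells determined in a cell viability assay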
Description: SANGER: Inhibition of human CP66-MEL cell growth in a cell viability assay.

HuTu80 = assay type: functional, cell-based, HUTU-80;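 further: growth inhibition of HuTu80 human cells, determined with a cell viability readout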
Description: SANGER: Inhibition of human HUTU-80 cell growth in a cell viability assay.

LB373-MEL-D = assay type: functional, cell-based;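 further: growth inhibition of the cell line, read out in a cell viability assay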
Description: SANGER: Inhibition of human LB373-MEL-D cell growth in a cell viability assay.

SK-UT-1 = assay type: functional, cell-based
Description: SANGER: Inhibition of human SK-UT-1 cell growth in a cell viability assay.

CC(=O)c1c(C)c2cnc(Nc3ccc(N4CCNCC4)cn3)nc2n(C2CCCC2)c1=O [PALBOCICLIB]
IC50 (COLO-800): 0.898 µM | IC50 (COR-L88): > 4 µM | IC50 (CW-2): > 4 µM | IC50 (D-263MG): 0.717 µM | IC50 (D283 Med): 2.72 µM | IC50 (DSH1): > 4 µM | IC50 (EKVX): > 4 µM | IC50 (EW-11): > 4 µM | IC50 (EW-18): > 4 µM | IC50 (EW-3): 0.809 µM | IC50 (GI-ME-N): > 4 µM | IC50 (HAL-01): 0.606 µM | IC50 (HL-60): 0.341 µM | IC50 (IST-MES1): 3.83 µM | IC50 (JAR): > 4 µM | IC50 (KARPAS-299): > 4 µM | IC50 (KE-37): 2.09 µM | IC50 (KY821): 0.314 µM | IC50 (L-428): > 4 µM | IC50 (LB1047-RCC): 0.928 µM | IC50 (LB771-HNC): > 4 µM | IC50 (LB831-BLC): > 4 µM | IC50 (LNCaP-Clone-FGC): > 4 µM | IC50 (LS-411N): > 4 µM | IC50 (LS-513): > 4 µM | IC50 (LU-134-A): > 4 µM | IC50 (Lu-65): > 4 µM | IC50 (LXF-289 cell line): > 4 µM | IC50 (MHH-NB-11): 0.22 µM | IC50 (MPP-89): > 4 µM | IC50 (MSTO-211H): 1.7 µM | IC50 (Mo): > 4 µM | IC50 (NB10): 0.599 µM | IC50 (NB6): 2.4 µM | IC50 (NCI-H1092): > 4 µM | IC50 (NCI-H1355): 2.56 µM | IC50 (NCI-H1650): > 4 µM | IC50 (NCI-H526): > 4 µM | IC50 (NH-12): > 4 µM | IC50 (NKM-1): 0.412 µM | IC50 (OCUB-M): > 4 µM | IC50 (OVCAR-4): > 4 µM | IC50 (RH-1): > 4 µM | IC50 (SHP77): > 4 µM | IC50 (SW684): > 4 µM | IC50 (SW 962): 0.809 µM | IC50 (TE-1): > 4 µM | IC50 (A498): > 4 µM | IC50 (ALL-PO): > 4 µM | IC50 (BB30-HNC): > 4 µM | IC50 (BB49-HNC): > 4 µM | IC50 (BT-474): > 4 µM | IC50 (BV-173): 0.652 µM | IC50 (C2BBe1): > 4 µM | IC50 (TE-8): 1.42 µM | IC50 (TGBC24TKB): > 4 µM | IC50 (COLO-320-HSR): > 4 µM | IC50 (COLO-668): > 4 µM | IC50 (COLO-684): > 4 µM

CCCS(=O)(=O)Nc1ccc(F)c(C(=O)c2c[nH]c3ncc(Cl)cc23)c1F [PLX-4720]
IC50 (COLO-800): > 10 µM | IC50 (COLO-829): 0.39 µM | IC50 (COR-L88): > 10 µM | IC50 (CP66-MEL): 4.16 µM | IC50 (CW-2): > 10 µM | IC50 (D-263MG): > 10 µM | IC50 (D283 Med): > 10 µM | IC50 (DSH1): > 10 µM | IC50 (EKVX): > 10 µM | IC50 (EW-11): > 10 µM | IC50 (EW-18): > 10 µM | IC50 (GI-ME-N): > 10 µM | IC50 (HAL-01): > 10 µM | IC50 (HL-60): > 10 µM | IC50 (HuTu80): > 10 µM | IC50 (IST-MES1): > 10 µM | IC50 (JAR): > 10 µM | IC50 (KARPAS-299): > 10 µM | IC50 (KE-37): > 10 µM | IC50 (KY821): 9.05 µM | IC50 (L-428): > 10 µM | IC50 (LB1047-RCC): > 10 µM | IC50 (LB373-MEL-D): > 10 µM | IC50 (LB771-HNC): > 10 µM | IC50 (LB831-BLC): > 10 µM | IC50 (LNCaP-Clone-FGC): > 10 µM | IC50 (LS-411N): > 10 µM | IC50 (LS-513): > 10 µM | IC50 (LU-134-A): > 10 µM | IC50 (Lu-65): > 10 µM | IC50 (LXF-289 cell line): > 10 µM | IC50 (MHH-NB-11): > 10 µM | IC50 (MPP-89): > 10 µM | IC50 (MSTO-211H): > 10 µM | IC50 (Mo): > 10 µM | IC50 (NB10): > 10 µM | IC50 (NB6): > 10 µM | IC50 (NCI-H1092): > 10 µM | IC50 (NCI-H1355): > 10 µM | IC50 (NCI-H1650): > 10 µM | IC50 (NCI-H526): > 10 µM | IC50 (NH-12): > 10 µM | IC50 (NKM-1): > 10 µM | IC50 (OCUB-M): > 10 µM | IC50 (OVCAR-4): > 10 µM | IC50 (RH-1): > 10 µM | IC50 (SHP77): > 10 µM | IC50 (SK-UT-1): > 10 µM | IC50 (SW684): > 10 µM | IC50 (SW 962): > 10 µM | IC50 (TE-1): > 10 µM | IC50 (A498): > 10 µM | IC50 (ALL-PO): > 10 µM | IC50 (BB30-HNC): > 10 µM | IC50 (BB49-HNC): > 10 µM | IC50 (BT-474): > 10 µM | IC50 (BV-173): 0.796 µM | IC50 (C2BBe1): > 10 µM | IC50 (TE-8): > 10 µM | IC50 (TGBC24TKB): > 10 µM | IC50 (COLO-320-HSR): > 10 µM | IC50 (COLO-668): > 10 µM | IC50 (COLO-684): > 10 µM
